“Also recorded” adds a separate entry of the source.
How the values were obtained:
[1] = pKa of Compound 1 free base; assay type: physicochemical
aged-impaired rats [2] = assay: Radial Arm Maze behavioral task, acute PO treatment; assay type: in vivo, Long-Evans rats; details: 10 mg/kg PO, 5-hr retention delay, compared to vehicle control
Protocol: (§1) Aged, male Long-Evans rats were obtained at 9 months of age from Charles River Laboratories (Raleigh, N.C.) and housed in a vivarium at The Johns Hopkins University until background behavioral assessment in a water maze at 24 months of age. Young rats obtained from the same source were housed in the same vivarium and were included in the background assessment at 6 months of age but were not used for drug testing in a radial arm maze task. All rats were individually housed at 25° C. and maintained on a 12 h light/dark cycle. Food and water were provided ad libitum unless noted otherwise. The rats were examined for health and pathogen-free status throughout the experiments, as well as necropsies at the time of killing. All procedures were in accordance with NIH guidelines using protocols approved by the Institutional Animal Care and Use Committee at The Johns Hopkins University.
All rats were screened in a standardized assessment of spatial cognition before the commencement of drug studies. The background assessment used a well-established Morris water maze protocol as described in detail elsewhere (Gallagher et al, 1993). Briefly, the rats were trained for 8 days (three trials per day) to locate a camouflaged escape platform that remained at the same location throughout training in a water maze. […]

aged-impaired rats [3] = assay: Morris Water Maze behavioral task, acute and chronic IP treatment; assay type: in vivo, Long-Evans rats; details: 10 mg/kg IP, compared to vehicle control
Protocol: as §1
All rats were screened in a standardized assessment of spatial cognition before the commencement of drug studies. […]
Rats were trained and tested in a novel water maze environment to assess the effect of the treatments. […] An hour after the last training trial, rats were given a probe test in the absence of the escape platform (free swim) to assess the memory of the platform location as measured by time spent searching at the target location. […]

[4] = Dynamic vapor sorption (DVS) hygroscopicity; assay type: physicochemical; details: for hygroscopicity (DVS isotherm): 5% to 95% RH; for form of material recovered from the DVS experiment by XRPD: post DVS
Protocol: Dynamic vapor sorption data was collected on a Surface Measurement System DVS Intrinsic instrument. The samples were not dried prior to analysis. Sorption and desorption data were collected over a range from 5% to 95% RH in 10% RH increments under a nitrogen purge. The equilibrium criteria used for the analyses were 0.001 dm/dt weight change in 5 minutes with a minimum step time of 30 minutes and maximum equilibration time of 180 minutes with a 3-minute data logging interval. Data were not corrected for the initial moisture content of the sample. The samples were identified as having low, limited or significant hygroscopicity based on the definitions in the below table.

[5] = Competitive interconversion slurry experiments (relative thermodynamic stability of crystalline forms); assay type: physicochemical; details: solvent-mediated interconversion slurries, ambient temperature (Form E also 55° C. and 77° C.)
Protocol: Interconversion experiments were performed to identify the most thermodynamically stable anhydrous form of Compound 1 (Table 9). […] The choice of solvent affects the kinetics of polymorph conversion and not the thermodynamic relationship between polymorphic forms.
Various combinations of Forms B, E, F, and Material D were slurried with Form A at ambient and elevated temperatures (for experiments involving Form E). Different solvent systems were used and included a variety of water activities. Saturated solutions were generated and then added to the mixtures composed of approximately equivalent quantities of the forms. The mixtures were slurried for a particular duration of time and the solids harvested and analyzed by XRPD.

[6] = Thermal decomposition by DSC; assay type: physicochemical; details: 10° C./min
Protocol: DSC was performed using a Mettler-Toledo DSC3+ differential scanning calorimeter. A tau lag adjustment is performed with indium, tin, and zinc. The temperature and enthalpy are adjusted with octane, phenyl salicylate, indium, tin and zinc. The adjustment is then verified with octane, phenyl salicylate, indium, tin, and zinc. The sample was placed into a hermetically sealed aluminum DSC pan, the weight was accurately recorded, and the sample was inserted into the DSC cell. A weighed aluminum pan configured as the sample pan was placed on the reference side of the cell. The pan lid was pierced prior to sample analysis. The samples were analyzed from −25° C. to 250° C. at 10° C./min.

[7] = Solid-state stability of crystalline forms on storage or heating (XRPD); assay type: physicochemical
Protocol: XRPD patterns were collected with a PANalytical X'Pert PRO MPD or a PANalytical Empyrean diffractometer using an incident beam of Cu radiation produced using an Optix long, fine-focus source. An elliptically graded multilayer mirror was used to focus Cu Kα X-rays through the specimen and onto the detector. Prior to the analysis, a silicon specimen (NIST SRM 640e) was analyzed to verify the observed position of the Si 111 peak is consistent with the NIST-certified position. A specimen of the sample was sandwiched between 3-μm-thick films and analyzed in transmission geometry. A beam-stop, short antiscatter extension, and antiscatter knife edge were used to minimize the background generated by air. Soller slits for the incident and diffracted beams were used to minimize broadening from axial divergence. Diffraction patterns were collected using a scanning position-sensitive detector (X'Celerator) located 240 mm from the specimen and Data Collector software v. 5.5. […] All images have the instrument labeled as X'Pert PRO MPD regardless of the instrument used.

SMILES: COCc1nnc2n1Cc1c(C#Cc3cnc(OC)s3)ncn1-c1ccc(Cl)cc1-2 [Compound 1, 5-((3-chloro-7-(methoxymethyl)-9H-benzo[f]imidazo[1,5-a][1,2,4]triazolo[4,3-d][1,4]diazepin-10-yl)ethynyl)-2-methoxythiazole]
- pKa [1]: 1.16 ± 0.04
- number of errors in radial arm maze retention test (aged-impaired rats [2]): fewer errors
- time spent in target quadrant of the Morris Water Maze (aged-impaired rats [3]): more time in the target quadrant

SMILES: COCc1nnc2n1Cc1c(C#Cc3cnc(OC)s3)ncn1-c1ccc(Cl)cc1-2 [Form A]
- hygroscopicity (DVS isotherm) [4]: limited hygroscopicity; also recorded: low hygroscopicity
- weight change through the sorption/desorption cycle ([4]; DVS, no hysteresis): ~0.3%
- form of material recovered from the DVS experiment by XRPD [4]: same as the starting material
- relative thermodynamic stability [5]: more thermodynamically stable than Form B and Material D at ambient temperature and more thermodynamically stable than Form E at ambient temperature, 55° C., and 77 °C
- DSC exotherm due to decomposition, onset [6]: about 207 °C

SMILES: COCc1nnc2n1Cc1c(C#Cc3cnc(OC)s3)ncn1-c1ccc(Cl)cc1-2 [Form B]
- relative thermodynamic stability [5]: metastable relative to Form A
- DSC exotherm due to decomposition, onset [6]: about 190 °C

SMILES: COCc1nnc2n1Cc1c(C#Cc3cnc(OC)s3)ncn1-c1ccc(Cl)cc1-2 [Form C]
- stability under ambient conditions ([7]; 9 weeks under ambient conditions): unchanged
- stability upon overnight exposure to 80° C. ([7]; overnight exposure to 80° C.): desolvate to Form B
- DSC exotherm due to decomposition, onset [6]: 190 °C

SMILES: COCc1nnc2n1Cc1c(C#Cc3cnc(OC)s3)ncn1-c1ccc(Cl)cc1-2 [Form E]
- relative thermodynamic stability [5]: metastable relative to Form A
- DSC exotherm due to decomposition, onset [6]: ~201 °C

SMILES: COCc1nnc2n1Cc1c(C#Cc3cnc(OC)s3)ncn1-c1ccc(Cl)cc1-2 [Form F]
- hygroscopicity (DVS isotherm) [4]: limited hygroscopicity
- weight gain ([4]; DVS, from 5-95% RH): 1.8%
- weight loss upon desorption ([4]; DVS, significant hysteresis): 1.5%
- form of material recovered from the DVS experiment by XRPD [4]: still Form F
- stability under vacuum ([7]; 5 days under vacuum at ambient temperature): unchanged
- stability upon exposure to 100° C. ([7]; exposure to 100° C. (several minutes, XRPD)): dehydrate; also recorded: loss of crystallinity
- DSC exotherms following dehydration endotherm (decomposition upon dehydration) [6]: above 120 °C

SMILES: COCc1nnc2n1Cc1c(C#Cc3cnc(OC)s3)ncn1-c1ccc(Cl)cc1-2 [Material D]
- relative thermodynamic stability [5]: metastable relative to Form A
- stability on ambient storage (XRPD) ([7]; 7 weeks of ambient storage, mixture with Form A): still remained
- DSC exotherm due to decomposition, onset [6]: ~174 °C
